According to PubChem BioAssay AID330 (DTP/NCI, 2004):
Values joined by “and” are separate entries in the source; they are usually repeats but may differ in a detail not shown here. Equal values may be shown once. Inconclusive results and toxic doses are left out. How the source made its calls: active means survival T/C of 150% or more; inactive means T/C below 125% in these data. Square brackets hold non-standard residues; d marks the D form. Peptide text beside a SMILES is read from it. ξ: configuration not given here. ξPhe(4-N(CH2CH2Cl)2) = NC(Cc1ccc(N(CCCl)CCCl)cc1)C(=O)O

Tested on: P388 leukemia ip, CD2F1 mice, survival T/C
Experiment: NCI In Vivo Anticancer Drug Screen. Data for tumor model P388 Leukemia (intraperitoneal) in CD2F1 (CDF1) mice
Settings: endpoint: median survival time, higher = longer survival
Procedure, shortened: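 Mice carrying the transplanted tumor received test compound or vehicle. Survival was recorded in each group, and the value is the treated-group measurement divided by that of the vehicle-treated control group.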

Measured: T/C

Nc1ccncc1N
inactive: dose: 2.5 mg/kg/injection, schedule: Q01DX009 (ip), vehicle: saline 94 % of control | dose: 3.12 mg/kg/injection, schedule: Q01DX009 (ip), vehicle: saline 101 % of control | dose: 5.0 mg/kg/injection, schedule: Q01DX009 (ip), vehicle: saline 106 % of control | dose: 6.25 mg/kg/injection, schedule: Q01DX009 (ip), vehicle: saline 97 % of control | dose: 10.0 mg/kg/injection, schedule: Q01DX009 (ip), vehicle: saline 100 % of control | dose: 12.5 mg/kg/injection, schedule: Q01DX009 (ip), vehicle: saline 103 % of control | dose: 20.0 mg/kg/injection, schedule: Q01DX009 (ip), vehicle: saline 93 % of control

CN=C(NC)c1ccc(NC(=O)Nc2cccc(NC(=O)Nc3ccc(C(=NC)NC)cc3)c2)cc1
active: dose: 12.5 mg/kg/injection, schedule: Q01DX005 (ip), vehicle: saline with Tween-80 160 % of control and 177 % of control | dose: 25.0 mg/kg/injection, schedule: Q01DX005 (ip), vehicle: saline with Tween-80 195 % of control and 206 % of control

COc1c2occc2c(OC)c2c(C)c(C(=O)OCCN3CCOCC3)oc12
inactive: dose: 60.0 mg/kg/injection, schedule: Q01DX005 (ip), vehicle: Klucel (hydroxypropylcellulose) (HPC) 96 % of control | dose: 120.0 mg/kg/injection, schedule: Q01DX005 (ip), vehicle: Klucel (hydroxypropylcellulose) (HPC) 91 % of control | dose: 240.0 mg/kg/injection, schedule: Q01DX005 (ip), vehicle: Klucel (hydroxypropylcellulose) (HPC) 91 % of control

CCOC(=O)C(Cc1ccc(N(CCCl)CCCl)cc1)NC(=O)C(CCC(=O)O)NC(=O)C(CO)NC(=O)C(CCC(=O)O)NC(=O)C(N)CO (configuration not stated) (H-SESE[ξPhe(4-N(CH2CH2Cl)2)]-OEt; configuration not given here)
inactive: dose: 5.0 mg/kg/injection, schedule: Q04DX003 (ip), vehicle: water 95 % of control | dose: 10.0 mg/kg/injection, schedule: Q04DX003 (ip), vehicle: water 106 % of control | dose: 20.0 mg/kg/injection, schedule: Q04DX003 (ip), vehicle: water 94 % of control | dose: 40.0 mg/kg/injection, schedule: Q04DX003 (ip), vehicle: water 105 % of control and 119 % of control

CCOC(=O)N(O)c1ccc(C)cc1C
inactive: dose: 50.0 mg/kg/injection, schedule: Q01DX005 (ip), vehicle: saline with Tween-80 96 % of control | dose: 100.0 mg/kg/injection, schedule: Q01DX005 (ip), vehicle: saline with Tween-80 102 % of control

Cc1ccc(N=Cc2cccs2)cc1
inactive: dose: 50.0 mg/kg/injection, schedule: Q01DX009 (ip), vehicle: Klucel (hydroxypropylcellulose) (HPC) 115 % of control | dose: 100.0 mg/kg/injection, schedule: Q01DX009 (ip), vehicle: Klucel (hydroxypropylcellulose) (HPC) 115 % of control

CCOc1ccc(NS(=O)(=O)c2ccc(N)cc2)cc1CN(CCCl)CCCl
inactive: dose: 100.0 mg/kg/injection, schedule: Q01DX001 (ip), vehicle: saline with Tween-80 99 % of control | dose: 200.0 mg/kg/injection, schedule: Q01DX001 (ip), vehicle: saline with Tween-80 99 % of control | dose: 400.0 mg/kg/injection, schedule: Q01DX001 (ip), vehicle: saline with Tween-80 93 % of control

CCCCOP(=O)(CCCC)OCCCC.CCCCOP(=O)(CCCC)OCCCC.CCCCOP(=O)(CCCC)OCCCC.CCCCOP(=O)(CCCC)OCCCC.O.O.[Co+2].[O-][Cl+3]([O-])([O-])O
inactive: dose: 25.0 mg/kg/injection, schedule: Q01DX009 (ip), vehicle: saline with Tween-80 87 % of control | dose: 50.0 mg/kg/injection, schedule: Q01DX009 (ip), vehicle: saline with Tween-80 100 % of control and 104 % of control | dose: 100.0 mg/kg/injection, schedule: Q01DX009 (ip), vehicle: saline with Tween-80 116 % of control

C1CCCC2(CC1)OCCO2
inactive: dose: 100.0 mg/kg/injection, schedule: Q04DX003 (ip), vehicle: saline 101 % of control | dose: 200.0 mg/kg/injection, schedule: Q04DX003 (ip), vehicle: saline 97 % of control | dose: 400.0 mg/kg/injection, schedule: Q04DX003 (ip), vehicle: saline 98 % of control

CC(=O)OCC1OC(n2cnc3c(Cl)nc(Cl)nc32)CC(OC(C)=O)C1OC(C)=O (configuration not stated)
inactive: dose: 50.0 mg/kg/injection, schedule: Q01DX005 (ip), vehicle: Klucel (hydroxypropylcellulose) (HPC) 93 % of control | dose: 100.0 mg/kg/injection, schedule: Q01DX005 (ip), vehicle: Klucel (hydroxypropylcellulose) (HPC) 99 % of control | dose: 200.0 mg/kg/injection, schedule: Q01DX005 (ip), vehicle: Klucel (hydroxypropylcellulose) (HPC) 91 % of control

CC1=C(C(=O)Nc2ccccc2)C(c2ccccc2F)C(C(=O)Nc2ccccc2)=C(C)N1
inactive: dose: 100.0 mg/kg/injection, schedule: Q04DX002 (ip), vehicle: saline with Tween-80 100 % of control | dose: 200.0 mg/kg/injection, schedule: Q04DX002 (ip), vehicle: saline with Tween-80 100 % of control | dose: 400.0 mg/kg/injection, schedule: Q04DX002 (ip), vehicle: saline with Tween-80 91 % of control

C=C1CC2C3CCC=C3C(c3ccc(OC)cc3)C2C1=O (configuration not stated)
inactive: dose: 25.0 mg/kg/injection, schedule: Q01DX001 (ip), vehicle: Klucel (hydroxypropylcellulose) (HPC) 112 % of control | dose: 50.0 mg/kg/injection, schedule: Q01DX001 (ip), vehicle: Klucel (hydroxypropylcellulose) (HPC) 109 % of control | dose: 100.0 mg/kg/injection, schedule: Q01DX001 (ip), vehicle: Klucel (hydroxypropylcellulose) (HPC) 107 % of control and 111 % of control | dose: 200.0 mg/kg/injection, schedule: Q01DX001 (ip), vehicle: Klucel (hydroxypropylcellulose) (HPC) 106 % of control

CC(C)CC(=O)Nc1ccc(S(=O)(=O)Cl)cc1
inactive: dose: 100.0 mg/kg/injection, schedule: Q01DX009 (ip), vehicle: saline 100 % of control | dose: 200.0 mg/kg/injection, schedule: Q01DX009 (ip), vehicle: saline 90 % of control | dose: 400.0 mg/kg/injection, schedule: Q01DX009 (ip), vehicle: saline 90 % of control
